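Assay format: 96-well plates, 48-hour exposure. GI50 = concentration required for 50% inhibition of growth. The concentration for full growth arrest is given as TGI.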
What was measured:
Experiment in all cases: NCI-60 cell line screen, 48 h
[1] = test system: A498 renal
[2] = test system: RPMI-8226 leukemia
[3] = test system: T-47D breast
[4] = test system: K-562 leukemia
[5] = test system: SK-MEL-2 melanoma
[6] = test system: BT-549 breast
[7] = test system: OVCAR-4 ovarian
[8] = test system: SK-MEL-28 melanoma
[9] = test system: SF-268 CNS
[10] = test system: MDA-MB-231 breast
[11] = test system: SK-OV-3 ovarian
[12] = test system: HOP-92 NSCLC
[13] = test system: RXF 393 renal
[14] = test system: A549 NSCLC
[15] = test system: SN12C renal
[16] = test system: OVCAR-3 ovarian
[17] = test system: OVCAR-8 ovarian
[18] = test system: M14 melanoma
[19] = test system: NCI/ADR-RES ovarian
[20] = test system: DU-145 prostate
[21] = test system: NCI-H460 lung
[22] = test system: SK-MEL-5 melanoma
[23] = test system: CAKI-1 renal
[24] = test system: CCRF-CEM leukemia
[25] = test system: UO-31 renal
[26] = test system: HT29 colon
[27] = test system: KM12 colon
[28] = test system: SF-295 CNS
[29] = test system: EKVX NSCLC
[30] = test system: UACC-257 melanoma
[31] = test system: NCI-H23 lung
[32] = test system: IGROV1 ovarian
[33] = test system: COLO 205 colon
[34] = test system: MDA-MB-435
[35] = test system: MALME-3M melanoma
[36] = test system: LOX IMVI melanoma
[37] = test system: HS 578T breast
[38] = test system: SW-620 colon
[39] = test system: ACHN renal
[40] = test system: SNB-75 CNS
[41] = test system: MOLT-4 leukemia
[42] = test system: HCT-116 colon
[43] = test system: PC-3 prostate
[44] = test system: SNB-19 CNS
[45] = test system: HCC-2998 colon
[46] = test system: NCI-H522 lung
[47] = test system: 786-0 renal
[48] = test system: SF-539 CNS
[49] = test system: HL-60(TB) leukemia
[50] = test system: MCF7 breast
[51] = test system: NCI-H226 lung
[52] = test system: OVCAR-5 ovarian
[53] = test system: TK-10 renal
[54] = test system: UACC-62 melanoma
[55] = test system: MDA-MB-468 breast
[56] = test system: HCT-15 colon
[57] = test system: SR leukemia
[58] = test system: HOP-62 NSCLC
[59] = test system: U251 CNS

## CC1(C)CC[C@]2(C(=O)Nc3ccccc3)CC[C@]3(C)C(=CC[C@@H]4[C@@]5(C)CC[C@H](N)C(C)(C)[C@@H]5CC[C@]43C)[C@H]2C1
[1]
  GI50: 13.2 µM
  TGI: 27.1 µM
[2]
  GI50: 19 µM
  TGI: 80 µM
[3]
  GI50: 14.9 µM
  TGI: 34.7 µM
[4]
  GI50: 4.07 µM
  TGI: > 100 µM
[5]
  GI50: 17.1 µM
  TGI: 32.3 µM
[6]
  GI50: 18.3 µM
  TGI: 32.9 µM
[7]
  GI50: 15.8 µM
  TGI: 31.4 µM
[8]
  GI50: 17.5 µM
  TGI: 31.7 µM
[9]
  GI50: 16.6 µM
  TGI: 33.5 µM
[10]
  GI50: 16.1 µM
  TGI: 30 µM
[11]
  GI50: 17.2 µM
  TGI: 33.6 µM
[12]
  GI50: 11.5 µM
  TGI: 26.1 µM
[13]
  GI50: 10.2 µM
  TGI: 24 µM
[14]
  GI50: 17.4 µM
  TGI: 41.6 µM
[15]
  GI50: 16.5 µM
  TGI: 30.6 µM
[16]
  GI50: 13.2 µM
  TGI: 26.6 µM
[17]
  GI50: 18.2 µM
  TGI: 38.3 µM
[18]
  GI50: 17.6 µM
  TGI: 33.8 µM
[19]
  GI50: 16.2 µM
  TGI: 31.9 µM
[20]
  GI50: 16.1 µM
  TGI: 30.6 µM
[21]
  GI50: 13.4 µM
  TGI: 28 µM
[22]
  GI50: 15.5 µM
  TGI: 29 µM
[23]
  GI50: 14.6 µM
  TGI: 28.5 µM
[24]
  GI50: 14.6 µM
  TGI: 34.5 µM
[25]
  GI50: 13.9 µM
  TGI: 27.1 µM
[26]
  GI50: 17.5 µM
  TGI: 39.9 µM
[27]
  GI50: 17.3 µM
  TGI: 32.4 µM
[28]
  GI50: 15.6 µM
  TGI: 30.4 µM
[29]
  GI50: 15.6 µM
  TGI: 30.4 µM
[30]
  GI50: 15.8 µM
  TGI: 32.2 µM
[31]
  GI50: 16.8 µM
  TGI: 31.5 µM
[32]
  GI50: 15.8 µM
  TGI: 30.2 µM
[33]
  GI50: 15.6 µM
  TGI: 35.7 µM
[34]
  GI50: 14.8 µM
  TGI: 29 µM
[35]
  GI50: 16.4 µM
  TGI: 30.3 µM
[36]
  GI50: 4.31 µM
  TGI: 16.2 µM
[37]
  GI50: 16.2 µM
  TGI: 35.2 µM
[38]
  GI50: 5.47 µM
  TGI: 20.3 µM
[39]
  GI50: 15.9 µM
  TGI: 29.5 µM
[40]
  GI50: 12.2 µM
  TGI: 25.5 µM
[41]
  GI50: 15.3 µM
  TGI: 42 µM
[42]
  GI50: 9.26 µM
  TGI: 26.2 µM
[43]
  GI50: 15.9 µM
  TGI: 31.8 µM
[44]
  GI50: 16.4 µM
  TGI: 30.6 µM
[45]
  GI50: 12 µM
  TGI: 25.1 µM
[46]
  GI50: 16.2 µM
  TGI: 32.4 µM
[47]
  GI50: 13.8 µM
  TGI: 29 µM
[48]
  GI50: 15.4 µM
  TGI: 29.1 µM
[49]
  GI50: 10 µM
  TGI: 37.5 µM
[50]
  GI50: 3.51 µM
  TGI: 14.7 µM
[51]
  GI50: 14.9 µM
  TGI: 31.8 µM
[52]
  GI50: 16.2 µM
  TGI: 30 µM
[53]
  GI50: 17.4 µM
  TGI: 33.3 µM
[54]
  GI50: 16.7 µM
  TGI: 30.6 µM
[55]
  GI50: 13.3 µM
  TGI: 28.1 µM
[56]
  GI50: 13.6 µM
  TGI: 27.9 µM
[57]
  GI50: 2.84 µM
  TGI: 13.3 µM
[58]
  GI50: 15.8 µM
  TGI: 32.4 µM
[59]
  GI50: 17.5 µM
  TGI: 35.1 µM
